Measurements taken from patent publication US3985779A, “M-phenoxyphenyl propionic acid derivatives and preparation thereof” (Eisai Co., Ltd., priority 1973, dated 1976).
Entries after “also recorded” stand apart in the source; their conditions may differ. Read-outs that look alike come from different tables or passages of the source.

Assays:
[1] = test system: stomachs of the rats; type: in vivo; conditions: 50 mg/kg oral; score 0 (nothing unusual) to 10 (considerable irritability with bleeding)
Excerpt: Observation of gastric irritability
Gastric irritability due to oral administration of the compounds as edema inhibitory agent was studied by macroscopical observation of the dissected stomachs of the rats which had been employed for determination of the edema inhibitions mentioned in the preceding paragraphs. The degrees of the irritability observed were scored in the 0 to 10 ratings depending upon the extent of errosions and bleedings of the stomachs, wherein the rating of 0(zero) means "nothing unusual", the rating of 10 means a state of considerable gastric irritability with bleeding and the remainders mean the intermediate degree of gastric irritability.

[2] = in vivo; conditions: mouse, po
Protocol: Comparison of toxicity of the phenyl propionic acid derivatives of the present invention and that of the other known anti-inflammatory agents was carried out in mice.

[3] = test system: granuloma induced by Formalin Filter paper Pellet; conditions: for Adrenal / Granuloma-Wet-Weight ± S.E. / Thymus: 6 days
[4] = test system: ARRS-induced edema; assay: Inhibitory activity on anti-rat-rabbit serum (ARRS)-induced edema in rats (Experiment D); type: in vivo
Protocol: Inhibitory activity on anti-rat-rabbit serum (ARRS)-induced edema in rats Similar Experiments was carried out by using ARRS as irritant substance.

[5] = test system: Kaolin-induced edema; assay: Inhibitory activity on Kaolin-induced Edema in Rats (Experiment B); type: in vivo
[6] = test system: Dextran-induced edema; assay: Inhibitory activity on dextran-induced edema in rats (Experiment C); type: in vivo
Protocol: Inhibitory activity on dextran-induced edema in rats Experiment was carried out in the manner same as those of the preceding Experiments in which dextran was employed as irritant substance.

[7] = test system: edema induced with the various inflammatory agents; assay: Inhibitory activity on edema induced with the various inflammatory agents (Experiments A-G, summary); type: in vivo, rats; conditions: compared with Fenoprofen and Ibuprofen
Excerpt: From the abovementioned Experiments A - G, it has been found the followings: […]

[8] = test system: Adjuvant-induced arthritis; assay: Inhibitory activity on Adjuvant arthritis in rats (Experiment E); type: in vivo
Excerpt: The inflammatory score and the volumes of the right and left paws of the rats were observed.

[9] = test system: writhing syndrome; assay: Analgesic activity: antagonism to acetic acid writhing syndrome in mice (Experiment J); type: in vivo, mice (dd strain male)
Protocol: Analgesic activity of the compound of the present invention in comparison with the known compounds.
Analgesic activity of the compound was tested as the measure of antagonism to writhing syndrome appeared when 0.1 ml/10g of 0.7% acetic acid was intraperitoneally injected to the dd strain male mice having 17 - 20 grs. body weight which had been abstinence from food for 18 hours.
The compounds under test were orally administered in a form of suspension in a 5% aqueous solution of gum arabic. After one hour from the administration, the onset times required for the writhing syndrome were scored.
In another Experiment in the combined use of the compounds under test and Codeine phosphate, 10 - 20 mg/kg of Codeine phosphate were orally administered immediatly after the oral administration of the compounds under test.

[10] = test system: Carrageenin-induced edema; assay: Inhibitory activity on Carrageenin-induced Edema in rats (Experiment A); type: in vivo, rats (male Wistar); conditions: 3 hours after Carrageenin
Protocol: Inhibitory activity on Carrageenin-induced Edema in rats
Carrageenin was used as the agent for inducing edema and 5 male rats of Wistar strain having body weight of about 150 grs. after fasting for 16-17 hours were used as test animals. The inhibitory activity of the test compounds were determined with the paw edema method in accordance with Winter C. A. et al; Proc. Soc. Exp. Biol. Med. 111, 544 (1962).
The compounds were suspended in an aqueous solution of gum arabic and the same were orally administered to the rats at 1 hour before the injection of Carrageenin.
The observation was effected by measuring, after 3 hours the administration of the Carrageenin, the enlarged volumes of hind paw of the rats.

[11] = daily oral 40 mg/kg for 9 days, final

CC(C(=O)O)c1cccc(Oc2ccccc2Cl)c1 (stereo not drawn) [Compound (5), 2-[m-(o-chlorophenoxy)phenyl]propionic acid]
Degree of gastric irritability [1]: 2
LD50 [2]: 1120 mg/kg
Adrenal ([3]; daily oral 8 mg/kg): 44.6 mg
Granuloma-Wet-Weight ± S.E. ([3]; daily oral 8 mg/kg): 68 ± 4
Thymus ([3]; daily oral 8 mg/kg): 545 mg
Adrenal ([3]; daily oral 40 mg/kg): 43.8 mg
Granuloma-Wet-Weight ± S.E. ([3]; daily oral 40 mg/kg): 89 ± 4
Thymus ([3]; daily oral 40 mg/kg): 522 mg
inhibitory activity on granuloma (in words) ([3]; oral 8 and 40 mg/kg/day for successive 6 days): significant effect as compared with the control
Edema D. ± S.E. ([4]; after 2 hrs, oral 8 mg/kg): .631 ± 7040
% of Inhibition ([4]; after 2 hrs, oral 40 mg/kg): 10%
Edema D. ± S.E. ([4]; after 2 hrs, oral 40 mg/kg): .610 ± .067
% of Inhibition ([4]; after 3 hrs, oral 8 mg/kg): 11%
Edema D. ± S.E. ([4]; after 3 hrs, oral 8 mg/kg): .637 ± .074
% of Inhibition ([4]; after 3 hrs, oral 40 mg/kg): 19%
Edema D. ± S.E. ([4]; after 3 hrs, oral 40 mg/kg): .575 ± .074
% of Inhibition ([5]; after 3 hrs, oral 8 mg/kg): 20%
Edema D. ± S.E. ([5]; after 3 hrs, oral 8 mg/kg): .334 ± .069
% of Inhibition ([5]; after 3 hrs, oral 40 mg/kg): 52%
Edema D. ± S.E. ([5]; after 3 hrs, oral 40 mg/kg): .201 ± .021
% of Inhibition ([5]; after 5 hrs, oral 8 mg/kg): 21%
Edema D. ± S.E. ([5]; after 5 hrs, oral 8 mg/kg): .442 ± .045
% of Inhibition ([5]; after 5 hrs, oral 40 mg/kg): 57%
Edema D. ± S.E. ([5]; after 5 hrs, oral 40 mg/kg): .245 ± .017
% of Inhibition ([5]; after 7 hrs, oral 8 mg/kg): 7%
Edema D. ± S.E. ([5]; after 7 hrs, oral 8 mg/kg): .563 ± .060
% of Inhibition ([5]; after 7 hrs, oral 40 mg/kg): 51%
Edema D. ± S.E. ([5]; after 7 hrs, oral 40 mg/kg): .294 ± .035
% of Inhibition ([6]; after 2 hrs, oral 8 mg/kg): 1%
Edema D. ± S.E. ([6]; after 2 hrs, oral 8 mg/kg): .830 ± .052
% of Inhibition ([6]; after 2 hrs, oral 40 mg/kg): 11%
Edema D. ± S.E. ([6]; after 2 hrs, oral 40 mg/kg): .742 ± .037
% of Inhibition ([6]; after 3 hrs, oral 8 mg/kg): 1%
Edema D. ± S.E. ([6]; after 3 hrs, oral 8 mg/kg): .746 ± .026
% of Inhibition ([6]; after 3 hrs, oral 40 mg/kg): 8%
Edema D. ± S.E. ([6]; after 3 hrs, oral 40 mg/kg): .689 ± .035
anti-inflammatory activity (in words) [7]: most effective as the anti-inflammatory agent
Final Paw Volume, left paw [8, 11]: 45
Final Paw Volume, right paw [8, 11]: 66
Final Score, Mean, left paw [8, 11]: 1.8
Final Score, Mean, right paw [8, 11]: 3.2
Final Score, Total, left paw [8, 11]: 9
Final Score, Total, right paw [8, 11]: 16
Initial Paw Volume, left paw ([8]; daily oral 40 mg/kg, initial): 39
Initial Paw Volume, right paw ([8]; daily oral 40 mg/kg, initial): 73
Initial Score, Mean, left paw ([8]; daily oral 40 mg/kg, initial): 1.8
Initial Score, Mean, right paw ([8]; daily oral 40 mg/kg, initial): 3.6
Initial Score, Total, left paw ([8]; daily oral 40 mg/kg, initial): 9
Initial Score, Total, right paw ([8]; daily oral 40 mg/kg, initial): 18
inhibitory activity on Adjuvant arthritis (in words) ([8]; score and paw volume, 40 mg/kg daily for 9 days): significant inhibitory activity in score and paw volume
Onset time of writhing syndrome, mean ± S.E. ([9]; 10 mg/kg p.o. combined with Codeine Phosphate 10 mg/kg): 6.7 ± 1.3 min
Onset time of writhing syndrome, mean ± S.E. ([9]; 10 mg/kg p.o. combined with Codeine Phosphate 20 mg/kg): 6.9 ± 0.7 min
Onset time of writhing syndrome, mean ± S.E. ([9]; 20 mg/kg p.o. combined with Codeine Phosphate 10 mg/kg): 6.9 ± 1.3 min
Onset time of writhing syndrome, mean ± S.E. ([9]; 20 mg/kg p.o. combined with Codeine Phosphate 20 mg/kg): 8.6 ± 0.6 min
Onset time of writhing syndrome, mean ± S.E. ([9]; 40 mg/kg p.o. combined with Codeine Phosphate 10 mg/kg): 7.1 ± 1.2 min
Onset time of writhing syndrome, mean ± S.E. ([9]; 40 mg/kg p.o. combined with Codeine Phosphate 20 mg/kg): 13.7 ± 1.2 min
Onset time of writhing syndrome, mean ± S.E. ([9]; 80 mg/kg p.o. combined with Codeine Phosphate 10 mg/kg): 10.5 ± 1.2 min
Onset time of writhing syndrome, mean ± S.E. ([9]; 80 mg/kg p.o. combined with Codeine Phosphate 20 mg/kg): 14.2 ± 0.8 min
analgesic activity in combination with Codeine (in words) ([9]; 10 - 80 mg/kg p.o. with Codeine phosphate 10 and 20 mg/kg p.o.): almost equivalent to those of Fenoprofen and Ibuprofen, and far stronger than that of Aspirin; also recorded: comparable to that of Fenoprofen and slightly stronger than that presented by Ibuprofen
minimal effective dose ([9]; Mus musculus, 1 h, single oral administration, read-out: dose with significant antagonism / retardation of writhing syndrome): > 20 mg/kg
analgesic activity (in words) ([9]; mouse, in vivo): high analgesic activity
Onset time of writhing syndrome, mean ± S.E. ([9]; test compound alone, 10 mg/kg p.o.): 5.2 ± 1.2 min
Onset time of writhing syndrome, mean ± S.E. ([9]; test compound alone, 20 mg/kg p.o.): 6.6 ± 1.6 min
Onset time of writhing syndrome, mean ± S.E. ([9]; test compound alone, 40 mg/kg p.o.): 5.8 ± 0.4 min
Onset time of writhing syndrome, mean ± S.E. ([9]; test compound alone, 80 mg/kg p.o.): 7.8 ± 1.7 min
% of Inhibition ([10]; oral 8.0 mg/kg): 43%
Edema density ± S.E. ([10]; oral 8.0 mg/kg): .305 ± .044
% of Inhibition ([10]; oral 40.0 mg/kg): 53%
Edema density ± S.E. ([10]; oral 40.0 mg/kg): .250 ± .049
